Reference: publication PMC12040169 (PLOS Biology, 2025)

Assay: in vitro
Conditions: human, hela cells, % viability

Compound	viability at 28.5 h, 10 µM [%]
CN(CC(=O)N1CCCCC1)S(=O)(=O)c1cc(Cl)ccc1Cl [CBK091826]	78.9
CN(CC(=O)NC1CCCCC1)S(=O)(=O)c1ccc(F)cc1 [CBK091832]	98.6
CCNC(=O)CN(C)S(=O)(=O)c1cc(Cl)ccc1Cl [CBK091853]	94.1
Cc1ccccc1-n1c(SC(C)C)nc2sc3c(c2c1=O)CC(C)(C)OC3 [CBK091874]	91.2
O=C(O)c1ccc(NS(=O)(=O)c2cccs2)cc1O [CBK092145]	101
CS(=O)(=O)Nc1nc2ccc(S(C)(=O)=O)cc2s1 [CBK092166]	100
COc1ccc(S(=O)(=O)N2CCC(C(=O)O)CC2)cc1C(=O)O [CBK092181]	91.4
COC(=O)c1ccccc1Oc1nc(OC)cc(OC)n1 [CBK092217]	110
COc1cc(OC)nc(Oc2ccc(C(=O)O)cc2)n1 [CBK092222]	106
c1ccc(-c2cnc3c(N4CCCC4)nc(-c4cccnc4)cn23)cc1 [CBK092245]	86.7
Cc1cnc2c(N3CCCC3)nc(Cl)cn12 [CBK092250]	104
COc1ccccc1C1NC(=O)COC12CCN(Cc1ccccc1)CC2 (stereo not drawn) [CBK092265]	109
Cn1[nH]c(CO)c(Cc2c(Cl)cccc2Cl)c1=O [CBK092278T]	95.4
COc1n[nH]c(CO)c1Cc1c(Cl)cccc1Cl [CBK092283T]	97.3
CCOC(=O)c1cnc(SC)nc1NCCc1c[nH]c2cc(OC)ccc12 [CBK092317]	87.6
Cc1ccccc1C(=O)NCC(=O)NCc1csc(-c2ccccc2)n1 [CBK092334]	91.8
CCC(=O)NCc1csc(-c2ccccc2)n1 [CBK092344]	90.1
CSCC[C@H](NC(=O)OC(C)(C)C)C(=O)NCc1csc(-c2ccccc2)n1 [CBK092345]	88
Cc1nc(-c2ccccc2)sc1CNC(=O)/C=C\C(=O)Nc1ccc(F)cc1 [CBK092357]	96.2
Cc1nc(-c2ccccc2)sc1CNC(=O)C(F)(F)F [CBK092363]	88.8
Cc1nc(-c2ccccc2)sc1CNC(=O)CCC(F)(F)F [CBK092365]	102
Cc1nc(-c2ccccc2)sc1CNC(=O)/C=C/c1c[nH]cn1 [CBK092368]	83.3

Compound	viability at 28.5 h, 10 µM [%]
Cc1nc(-c2ccccc2)sc1CNC(=O)C1CC1C (stereo not drawn) [CBK092369]	97
Cc1nc(-c2ccccc2)sc1CNC(=O)Cc1ccccc1F [CBK092372]	104
Cc1nc(-c2ccccc2)sc1CNC(=O)CCc1c[nH]c2ccccc12 [CBK092373]	106
CCOC(=O)CNc1nc(OC)cc(OC)n1 [CBK093392]	86.7
Cc1ccc(NC(=O)Nc2cc(S(N)(=O)=O)ccc2C)cc1 [CBK093428]	98.5
O=C1CSC2(C(=O)Nc3ccc(Br)cc32)N1c1cccc([N+](=O)[O-])c1 (stereo not drawn) [CBK093451]	94.3
COc1ccc(N2C(=O)CSC23C(=O)Nc2ccc(Br)cc23)cc1 (stereo not drawn) [CBK093454]	96.6
CC1SC2(C(=O)Nc3ccccc32)N(c2ccc(F)cc2)C1=O (stereo not drawn) [CBK093463]	96.8
C=CCN1C(=O)C2(Nc3ccccc3C(=O)N2c2ccc(Cl)cc2)c2ccccc21 (stereo not drawn) [CBK093474]	106
CCN(CC)C(=O)CN1C(=O)C2(Nc3ccccc3C(=O)N2c2ccc(C)cc2)c2ccccc21 (stereo not drawn) [CBK093478]	86
COc1nc(-c2cccnc2)cn2ccnc12 [CBK093490]	82.1
Cc1ccc(S(N)(=O)=O)cc1CNC(=O)Nc1cccc(F)c1 [CBK093516]	83.9
Cn1[nH]c(COC(C)(C)C)c(Cc2c(Cl)cccc2Cl)c1=O [CBK093521]	99.4
COc1ccc(Cn2nc(N)c3ccccc32)cc1 [CBK093530]	93.3
CCCc1[nH]nc(O)c1C(=O)c1c(Cl)cccc1Cl [CBK093553]	95.7
CC(C)Nc1cncc(Sc2cccc(C(=O)O)c2)n1 [CBK093582]	95.1
O=C(O)c1cccc(Sc2nc3cc(Cl)c(Cl)cc3nc2N2CCCC2)c1 [CBK093588]	118
O=C(O)c1cccc(Sc2cccc(C(F)(F)F)n2)c1 [CBK093592]	98
CNC(=O)c1cnc(SC)nc1NCCc1c[nH]c2ccccc12 [CBK093597]	104
CCOC(=O)c1cnc(N2CCOCC2)nc1NCCc1c[nH]c2ccccc12 [CBK093605]	106
c1cncc(-c2cn3ccnc3c(NC3CCCCC3)n2)c1 [CBK093606]	84.6
CC(C)Nc1nc(-c2cccnc2)cn2ccnc12 [CBK093608]	96.6

Compound	viability at 28.5 h, 10 µM [%]
NC1=NNC2=C(c3ccc(F)cc3)NNN12 [CBK093659]	86
NC1=NNC2=C(c3cccc(Cl)c3)NNN12 [CBK093661]	87.3
COc1cccc(N2N=C3NNC(N)=C3N2)c1 [CBK093665]	83.7
Cc1nnc(Sc2nc3ccccc3nc2NC(C)C)s1 [CBK093731]	90.6
c1cnc(N2CCCC2)c(Sc2nc[nH]n2)n1 [CBK093737]	102
c1nc(Sc2nccs2)cc(N2CCCC2)n1 [CBK093748]	100
Clc1cc2nc(Sc3ccccn3)c(N3CCCC3)nc2cc1Cl [CBK093754]	100
Nc1ccccc1Sc1ncccc1C(F)(F)F [CBK093758]	86.2
COc1ccc(Sc2cc(C(F)(F)F)ccn2)cc1OC [CBK093762]	92.5
Cc1csc(Sc2nccc(C(F)(F)F)n2)n1 [CBK093770]	91.9
FC(F)(F)c1ccnc(Sc2nccs2)n1 [CBK093771]	91.9
FC(F)(F)c1nc2ccccc2nc1Sc1ccncc1 [CBK093773]	92.8
Cn1ccnc1Sc1nc2ccccc2nc1C(F)(F)F [CBK093778]	106
COc1ccc(Sc2nc3ccccc3nc2C(F)(F)F)cc1OC [CBK093779]	85
Oc1cccc(Sc2nc3ccccc3nc2C(F)(F)F)c1 [CBK093780]	109
Nc1ccccc1Sc1ccc(C(F)(F)F)cn1 [CBK093782]	91.9
COCc1nnc(Sc2cc(NC(C)C)ncn2)s1 [CBK093784]	89.3
Cc1csc(Sc2nc3ccccc3nc2N2CCCC2)n1 [CBK093788]	99.2
Cn1ccnc1Sc1nc2ccccc2nc1N1CCCC1 [CBK093791]	92.4
c1ccc2nc(N3CCCC3)c(Sc3nccs3)nc2c1 [CBK093794]	110
Oc1cccc(Sc2cncc(N3CCCC3)n2)c1 [CBK093796]	106
COc1ccc(Sc2nc3ccccc3nc2N2CCCC2)cc1OC [CBK093797]	101

Same assay, conditions: human, hela cells, % viability, bulk resorufin, single well

Compound	viability at 28.5 h, 10 µM [%]
CC(C)(C)OC(=O)N1CCC2(CC1)OCc1cc(Br)ccc1O2 [CBK092251]	99.4
COc1ccc(CCn2nc(C(=O)O)c3ccccc32)cc1 [CBK093525]	85
CC(=O)N1CCC(C(=O)Nc2cccc(-c3ccc4c(c3)COC3(CCNCC3)O4)c2)CC1 [CBK093674]	91.4
